Measured values from publication PMC9322451 (Clinical Pharmacology in Drug Development, 2022).

Experiments:
[1] = Phase 1 part B: safety (TEAEs); assay type: in vivo, human; conditions: for Any TEAE / Serious TEAE / Severe TEAE / TEAE leading to death / TEAE leading to discontinuation / Abdominal pain upper (TEAE by preferred term) / Decreased appetite (TEAE by preferred term) / Dry skin (TEAE by preferred term) / Headache (TEAE by preferred term) / Skin exfoliation (TEAE by preferred term) / Skin lesion (TEAE by preferred term): Part B, 40 mg; for participants reporting skin exfoliation / participants who experienced a TEAE / number of TEAEs reported: part B
Experimental: Participants were admitted to the clinical unit the day before doses were administered on days 1 and 8 and discharged on days 2 and 9, after collection of the 36‐hour postdose PK sample. The washout period between doses was 7 days. […] After dosing, participants were required to remain upright for at least 2 hours and refrain from food and drink for at least 4 hours; water was allowed after 2 hours.
Safety was assessed from the signing of informed consent until the end of study and included the following variables: treatment‐emergent adverse events (TEAEs), serious adverse events (SAEs), clinical laboratory tests (clinical chemistry, hematology, coagulation [part A only], and urinalysis), vital signs, 12‐lead ECG, primary Holter monitoring, and physical examinations (including evaluation of teeth and gingiva, and evaluation of palms and soles). Because of the mechanism of action of brensocatib, findings of hyperkeratosis, periodontitis/gingivitis, and other infections were reported as adverse events of special interest (AESIs). Renal function (part A only) was monitored by measuring serum creatinine and blood urea nitrogen, performing routine urinalysis, and measuring neutrophil gelatinase–associated lipocalin and cystatin.
Adverse events (AEs) observed before the first dosing were recorded as medical history. All medical history and AEs were coded using the Medical Dictionary for Regulatory Activities (version 21.1 or higher). A TEAE was defined as an AE that began or worsened in severity after at least 1 dose of study drug was administered. All AEs experienced by a participant were monitored until the event had resolved, any abnormal laboratory values returned to baseline or stabilized, a satisfactory explanation for the changes was identified, or the participant was lost to follow‐up.

[2] = design: method as in unpublished data; conditions: ref unpublished data; cited from earlier work
[3] = design: method as in unpublished data; conditions: oral or intravenous 14C‐brensocatib, rats; ref unpublished data; cited from earlier work
CYP2B6 = system: CYP2B6; design: method as in unpublished data; conditions: ref unpublished data, read-out: half maximal inhibitory concentration; cited from earlier work
CYP2C9 = system: CYP2C9; design: method as in unpublished data; conditions: ref unpublished data; cited from earlier work
P‐gp = system: P‐gp; design: method as in unpublished data; conditions: ref unpublished data, read-out: half maximal inhibitory concentration; cited from earlier work
neutrophil elastase = system: neutrophil elastase; design: method as in PMID 29484635; conditions: cited from earlier work

## Cn1c(=O)oc2ccc(-c3ccc(C[C@@H](C#N)NC(=O)[C@@H]4CNCCCO4)cc3)cc21 [Brensocatib]
[1]; Japanese, Fasted (n=5)
  Any TEAE: 0 n (%)
  Serious TEAE: 0 n (%)
  Severe TEAE: 0 n (%)
  TEAE leading to death: 0 n (%)
  TEAE leading to discontinuation: 0 n (%)
[1]; Japanese, Fasted (n=10)
  Abdominal pain upper (TEAE by preferred term): 0 n (%)
  Decreased appetite (TEAE by preferred term): 0 n (%)
  Dry skin (TEAE by preferred term): 0 n (%)
  Headache (TEAE by preferred term): 0 n (%)
  Skin exfoliation (TEAE by preferred term): 0 n (%)
  Skin lesion (TEAE by preferred term): 0 n (%)
[1]; Japanese, Fed (n=5)
  Any TEAE: 3 (60.0) n (%)
  Serious TEAE: 0 n (%)
  Severe TEAE: 0 n (%)
  TEAE leading to death: 0 n (%)
  TEAE leading to discontinuation: 0 n (%)
[1]; Japanese, Fed (n=9)
  Abdominal pain upper (TEAE by preferred term): 1 (11.1) n (%)
  Decreased appetite (TEAE by preferred term): 1 (11.1) n (%)
  Dry skin (TEAE by preferred term): 0 n (%)
  Headache (TEAE by preferred term): 1 (11.1) n (%)
  Skin exfoliation (TEAE by preferred term): 1 (11.1) n (%)
  Skin lesion (TEAE by preferred term): 0 n (%)
[1]; Japanese, Total (N=10)
  Abdominal pain upper (TEAE by preferred term): 1 (10.0) n (%)
  Any TEAE: 3 (30.0) n (%)
  Decreased appetite (TEAE by preferred term): 1 (10.0) n (%)
  Dry skin (TEAE by preferred term): 0 n (%)
  Headache (TEAE by preferred term): 1 (10.0) n (%)
  Serious TEAE: 0 n (%)
  Severe TEAE: 0 n (%)
  Skin exfoliation (TEAE by preferred term): 1 (10.0) n (%)
  Skin lesion (TEAE by preferred term): 0 n (%)
  TEAE leading to death: 0 n (%)
  TEAE leading to discontinuation: 0 n (%)
[1]; White, Fasted (n=5)
  Any TEAE: 1 (20.0) n (%)
  Serious TEAE: 0 n (%)
  Severe TEAE: 0 n (%)
  TEAE leading to death: 0 n (%)
  TEAE leading to discontinuation: 0 n (%)
[1]; White, Fasted (n=10)
  Abdominal pain upper (TEAE by preferred term): 0 n (%)
  Decreased appetite (TEAE by preferred term): 0 n (%)
  Dry skin (TEAE by preferred term): 0 n (%)
  Headache (TEAE by preferred term): 0 n (%)
  Skin exfoliation (TEAE by preferred term): 0 n (%)
  Skin lesion (TEAE by preferred term): 1 (10.0) n (%)
[1]; White, Fed (n=5)
  Any TEAE: 2 (40.0) n (%)
  Serious TEAE: 0 n (%)
  Severe TEAE: 0 n (%)
  TEAE leading to death: 0 n (%)
  TEAE leading to discontinuation: 0 n (%)
[1]; White, Fed (n=10)
  Abdominal pain upper (TEAE by preferred term): 0 n (%)
  Decreased appetite (TEAE by preferred term): 0 n (%)
  Dry skin (TEAE by preferred term): 1 (10.0) n (%)
  Headache (TEAE by preferred term): 0 n (%)
  Skin exfoliation (TEAE by preferred term): 1 (10.0) n (%)
  Skin lesion (TEAE by preferred term): 0 n (%)
[1]; White, Total (N=10)
  Abdominal pain upper (TEAE by preferred term): 0 n (%)
  Any TEAE: 3 (30.0) n (%)
  Decreased appetite (TEAE by preferred term): 0 n (%)
  Dry skin (TEAE by preferred term): 1 (10.0) n (%)
  Headache (TEAE by preferred term): 0 n (%)
  Serious TEAE: 0 n (%)
  Severe TEAE: 0 n (%)
  Skin exfoliation (TEAE by preferred term): 1 (10.0) n (%)
  Skin lesion (TEAE by preferred term): 1 (10.0) n (%)
  TEAE leading to death: 0 n (%)
  TEAE leading to discontinuation: 0 n (%)
[1]; Japanese
  participants reporting skin exfoliation: 10.0%
  participants who experienced a TEAE: 30.0%
[1]; Japanese, fasted conditions
  number of TEAEs reported: none
[1]; Japanese, fed conditions
  number of TEAEs reported: 4
[1]; White
  participants reporting skin exfoliation: 10.0%
  participants who experienced a TEAE: 30.0%
[1]; White, fasted conditions
  number of TEAEs reported: 1
[1]; White, fed conditions
  number of TEAEs reported: 2
[2]
  degradation in human intestinal microsomes and hepatocytes: minimal degradation
[3]
  brensocatib in plasma, share of total radioactivity exposure: > 80%
  most abundant metabolite in plasma, share of total radioactivity exposure: ≈ 3%
CYP2B6
  IC50: > 30 µM
CYP2C9
  CYP inhibition: no effect
P‐gp
  IC50: > 11 µM
Neutrophil elastase
  inhibition of the activity of neutrophil elastase in blood: exposure‐dependent
